The results in this text go back to patent US11197811B2, “Teeth whitening methods, visually perceptible signals and compositions therefor” (Colgate-Palmolive Company, priority 2012, dated 2021).

The nature of series [1]: Dilution experiment of gel phase batches (absorbance). The class given is physicochemical. The following applies: for Absorbance, 2 fold dilution: gel phase batch diluted 2 fold; for Absorbance, 4 fold dilution: gel phase batch diluted 4 fold; for Absorbance, 8 fold dilution: gel phase batch diluted 8 fold; for Absorbance, 16 fold dilution: gel phase batch diluted 16 fold; for Absorbance, 32 fold dilution: gel phase batch diluted 32 fold. An excerpt: (§1) Lambda 25 UV/VIS Spectrometer (PerkinElmer) is used to obtain absorbance information for all samples in order to compare the clarity of gel phase between different actives. Absorbance is a logarithmic measure of the amount of light that is absorbed when passing through a substance. Since the particles in the gel absorb light, the more particles existing in solution, the more light absorbed by the gel. Thus, a small number of absorbance of a gel indicates a higher clarity. The absorbance is corrected by using deionized (DI) water as the blank solution under the light source wavelength of 610 nm.
(§2) Dilution experiment: All original gel phase batch are diluted into 2 fold, 4 fold, 8 fold, 16 fold and 32 fold. […] This observation confirms the formation of precipitate when ZLC gel is being diluted by water. The pHs of 2 fold, 4 fold, 8 fold, 16 fold, and 32 fold diluted ZLC gel solution are 7.71, 7.91, 8.03, 8.12, and 8.14, respectively.

The nature of series [2]: Spectrophotometric analysis of whitening (CIELAB color reading). Details: species or system human. Particulars: dentine section of Example 4 after third treatment. The protocol: (§3) For treatment, the neat solution is diluted 16-fold with water, yielding a treatment solution with initial zinc concentration of about 0.149% by weight. The dentine section is immersed in the treatment solution for 1 hour at 37° C. The treated dentine section is then removed from the treatment solution, and rinsed 4 times, each time with 1 mL of PBS. The dentine section is then dried using a paper-based tissue and examined under confocal microscope in both XYZ and XYZ modes. Subsequent treatments are conducted in the same manner.
Spectrophotometric analysis proves the whitening efficacy of the ZLC treatment. After the third treatment, the dentine section of Example 4 is dried and examined under a Spectroshade™ spectrophotometer (Handy Dental Type 71,3000). The treated dentinal area is included and the enamel rim is excluded from the examination and subsequent data processing. The CIELAB color reading is L*=86.6, a*=−1.7, and b*=1.5. A similarly prepared dentine section without treatment yielded a reading of L*=72.5, a*=−1.9, and b*=10.3. It is commonly understood that, by definition, L*=0 means black and L*=100 indicates diffuse white, negative a* value indicates green while positive values indicate magenta, and negative b* values indicate blue and positive values indicate yellow.

A short description of series [3]: pH of gel phase batches. It counts as physicochemical. The following applies: original oral gel batch.
A short description of series [4]: Clarity of gel phase by UV/VIS absorbance. It counts as physicochemical. Particulars: original oral gel, 0.5% (w/w) zinc level; for Absorbance: 610 nm, DI water blank. As for the experimental part:
Four 500.0 g gel phase batches which contain NaF (control), ZLC, ZnCl2 and ZnO as active ingredient are formulated with the ingredients shown in Table 8. The clarity of samples with different actives is compared, and the precipitation characteristic of ZLC gel phase by dilution is evaluated. The concentration of zinc ions in ZLC solution is 25300 ppm obtained by ICP, which in terms gives approximately 17% weight of ZLC actives in the solution. Zinc ion concentration in the following batches are all prepared at 0.5% (w/w) zinc level.
as §1

Series [5] is described as follows: Deposition/occlusion assay, confocal imaging. The arrangement: species or system human. The following applies: 0.149% zinc, 1 hour at 37° C. As for the experimental part:
(§4) The deposition/occlusion assay is conducted using human dentine slices and the neat solution of Example 3. The dentine slices are prepared by cutting human tooth into thin dentine sections of about 800 microns in thickness, designating a test side, sanding said test side using a sandpaper of about 600 grit, polishing said test side using a Buehler polishing cloth and 5 micron Buehler aluminum oxide, acid-etching said dentine section in 1% (by weight) citric acid solution for about 20 seconds, sonicating said dentine section for 10 minutes, and storing said dentine section in phosphate buffered saline (PBS, pH 7.4, Gibco Cat. No. 10010).
as §3
Progressive deposition and occlusion can be observed via confocal imaging. […] The surface deposits can be 10 microns or more in thickness. […] The surface deposits can be 25 microns or more in thickness.

A short description of series [6]: Dilution of neat ZLC solution, flocculation/precipitation monitored. Particulars: 37° C. The class given is physicochemical. As for the experimental part:
Various dilutions of ZLC are prepared to evaluate its efficiency in producing visible precipitates and/or flocculation, which can be delivered onto a dental surface (dentine and/or enamel) for whitening benefits.
(§5) A neat solution of ZLC is prepared by 1), reacting 0.5 mole of ZnO powder with 1 mole of lysine HCl in 1 liter of water at room temperature for about 2 hours, and 2) collecting the supernatant through centrifugation followed by filtration using a 0.45 micron membrane. The neat solution has a zinc concentration of 2.39% by weight, and a pH of about 7.03.
(§6) Dilution experiment is conducted by mixing the neat solution with deionized water. The neat solution is diluted by 2×, 4×, 6×, 7×, 8×, 10×, 12×, 16×, 20×, 24×, 28×, and 32×, corresponding to initial zinc concentrations of 1.20%, 0.598%, 0.398%, 0.341%, 0.299%, 0.239%, 0.199%, 0.149%, 0.120%, 0.0996%, 0.0854%, 0.0747%, by weight, respectively. The diluted samples are kept at 37° C., and the rates at which flocculation/precipitation occurred are monitored.

Series [7] in a line: Repeated 10 minute treatments of dentine section, confocal imaging. The arrangement: species or system human. Particulars: 10 minutes at 37° C.; for surface deposition on dentine: 0.0747% zinc. As for the experimental part:
as §4
A new dentine sections, as prepared following the procedure in Example 4, is repeatedly treated with ZLC dilutions with initial zinc concentration of 0.0747% by weight. […] The dentine section is examined under the confocal microscope after each treatment.

The nature of series [8]: pH of neat and final diluted ZLC solutions. The class given is physicochemical. The protocol:
as §5, §6
pH values of final diluted samples are suitable for oral care applications. […] These pH values are well within the range of 5.5 to 10, which defines the suitable range for oral care formulations.

A short description of series [9]: pH of diluted ZLC gel solution. It counts as physicochemical. As for the experimental part: as §2

Regarding [Zn(C6H14N2O2)2Cl]^+Cl^− [ZLC], the “Absorbance, 2 fold dilution” value in series [1] turned out to be 0.1436. The “Absorbance, 4 fold dilution” value in series [1] is reported as 0.1887. For the same molecule, the “Absorbance, 8 fold dilution” value in [1] stood at 0.1860. For the same molecule, in [1], the “Absorbance, 16 fold dilution” value stood at 0.1336. In addition, in series [1], the “Absorbance, 32 fold dilution” value is on record as 0.2998. Also, the “CIELAB color reading L*” value in [2] (untreated section L*=72.5) is 86.6. For the same molecule, the “CIELAB color reading a*” value in series [2] (untreated section a*=−1.9) is −1.7. The “CIELAB color reading b*” value in series [2] (untreated section b*=10.3) is 1.5. In addition, the pH in series [3] was 7.37. The “appearance of gel phase” value in series [4] is recorded as “forms a homogenous solution”. In [4], the Absorbance is given as 0.1765. Also, the “deposition and occlusion on dentine surface” value in series [5] (first treatment) is “noticeable deposition”; in series [5] (second treatment) it was “complete surface coverage, including blocking of substantially all tubule openings”; in series [5] (third treatment) it was “complete surface coverage and complete blocking of tubule openings”. In addition, the “thickness of surface deposits” value in series [5] (second treatment) is reported as ≥ 10 microns; in series [5] (third treatment), ≥ 25 microns. For the same molecule, the “time to some visible flocculation from mixing with water” value in series [6] (initial zinc concentrations 0.149% and 0.199%) is ≤ 30 min. In addition, the flocculation observed result in series [6] (one and a half hours after mixing, initial zinc between 0.0747% and 0.239%) is listed as “visible flocculation”; in series [6] (one hour from mixing, initial zinc between 0.0854% and 0.239%) it was “visible flocculation”; in [6] (two hours after mixing, initial zinc 0.299%) it was “presence of flocculation”. In addition, in series [6] (total of 19 hours, all samples except initial zinc 1.20%), the “flocculation and/or precipitation observed” value was “flocculation and/or precipitation can be observed”. Moreover, the “relative amount of precipitates” value in [6] (total of 19 hours, initial zinc between 0.0747% and 0.239%) was “the most precipitates”. For the same molecule, the “surface deposition on dentine” value in series [7] (after 4 consecutive treatments) is given as “significant surface deposition”; in series [7] (after 12 consecutive treatments), “complete surface coverage”. Also, in series [7] (initial zinc 0.0747%), the “precipitation by naked eyes during treatment” value is “no precipitation”. Further, the “final pH value of diluted sample” value in series [8] (initial zinc concentration 0.0747%) came to 7.99; in series [8] (initial zinc concentration 0.0854%), 8.13; in series [8] (initial zinc concentration 0.0996%) it was 8.11; in series [8] (initial zinc concentration 0.120%), 7.97; in [8] (initial zinc concentration 0.149%) it was 7.99; in series [8] (initial zinc concentration 0.199 wt %), 6.80. The “final pH value of diluted sample” value in [8] (initial zinc concentration 0.239%) came to 6.70. In addition, the “pH of neat solution” value in series [8] (neat solution, zinc concentration 2.39% by weight) is recorded as “about 7.03”. Besides, the “pH of diluted ZLC gel solution” value in [9] (2 fold diluted) is listed as 7.71; in series [9] (4 fold diluted) it was 7.91; in series [9] (8 fold diluted) it was 8.03; in series [9] (16 fold diluted), 8.12; in series [9] (32 fold diluted), 8.14.
As for `[F-].[Na+]` [NaF], in series [1], the “Absorbance, 2 fold dilution” value came out at 0.0106; the “Absorbance, 4 fold dilution” value was 0.0104; the “Absorbance, 8 fold dilution” value is listed as 0.0107; the “Absorbance, 16 fold dilution” value stood at 0.0075. Besides, in [1], the “Absorbance, 32 fold dilution” value stood at 0.0137. In [3], this molecule yielded a pH of 7.63. Further, the Absorbance in [4] is given as 0.0344.
Turning to `[Cl-].[Cl-].[Zn+2]` [ZnCl2], in series [1], the “Absorbance, 2 fold dilution” value is reported as 0.7315; the “Absorbance, 4 fold dilution” value turned out to be 0.3700; the “Absorbance, 8 fold dilution” value is listed as 0.1701; the “Absorbance, 16 fold dilution” value is listed as 0.0570. Further, the “Absorbance, 32 fold dilution” value in [1] is given as 0.0280. Moreover, in series [3], the pH turned out to be 5.25. Besides, in [4], the “appearance of gel phase” value is reported as “appears cloudy” and the Absorbance is listed as 0.9204.
As for `[O-2].[Zn+2]` [ZnO], in [1], the “Absorbance, 2 fold dilution” value stood at 2.4630; the “Absorbance, 4 fold dilution” value is given as 2.5340; the “Absorbance, 8 fold dilution” value turned out to be 2.1883; the “Absorbance, 16 fold dilution” value was 1.8638. The “Absorbance, 32 fold dilution” value in series [1] was 1.0492. The molecule also came in with a pH in series [3] of 8.30. In addition, in [4], the “appearance of gel phase” value was “not dissolved and is suspended in gel phase”; the Absorbance was 2.4626.
